The test deals with Plasmodium falciparum. In words: Antimalarial activity against Plasmodium falciparum 3D7 infected human erythrocytes after 24 hrs by [3H]hypoxanthine uptake. Format: functional, organism-based.

For `O=S(=O)(c1ccccc1)N1CCC2(CC1)COC1(OO2)C2CC3CC(C2)CC1C3` (stereo not given), the IC50 was determined as 710 nM.

The molecule `CCS(=O)(=O)N1CCC2(CC1)COC1(OO2)C2CC3CC(C2)CC1C3` (stereo not given) gave an IC50 of 180 nM.

Molecule `C1CC2(CCN1)COC1(OO2)C2CC3CC(C2)CC1C3` (stereo not given) displayed a half-inhibitory concentration (IC50) of 121 nM.

`O=S(=O)(c1ccccc1)N1CCC2(CC1)OOC1(OO2)C2CC3CC(C2)CC1C3` registered an IC50 of 10.7 nM.

With `O=S(=O)(c1ccccc1)N1CCC2(CC1)OOC1(O2)C2CC3CC(C2)CC1C3` (stereo not given), half-maximal inhibition (IC50) was put at 6.22 nM.

`CO[C@H]1O[C@@H]2O[C@@]3(C)CC[C@H]4[C@H](C)CC[C@@H]([C@H]1C)[C@@]24OO3` [ARTEMETHER] yielded an IC50 of 1.26 nM.

`O=S(=O)(c1ccccc1)N1CCC2(CC1)OCC1(OO2)C2CC3CC(C2)CC1C3` (stereo not given) came in with an IC50 above 1000 nM.

Take `CC(C)(C)OC(=O)N1CCC2(CC1)COC1(OO2)C2CC3CC(C2)CC1C3` (stereo not given): inhibition was half-maximal at 198 nM (IC50).

For `O=C(OCC1c2ccccc2-c2ccccc21)N1CCC2(CC1)COC1(OO2)C2CC3CC(C2)CC1C3` (stereo not given), it took 174 nM to reach half-maximal inhibition (IC50).

Regarding `CC(=O)N1CCC2(CC1)COC1(OO2)C2CC3CC(C2)CC1C3` (stereo not given), the IC50 is 183 nM.

As usually defined, the IC50 is the point on the concentration scale where inhibition reaches its midpoint. A lower IC50 goes with higher potency.

The values are drawn from ChEMBL document CHEMBL1139394, “Piperidine dispiro-1,2,4-trioxane analogues” (Bioorg Med Chem Lett, 2008).
